# Assay results published in article PMC10208570, “Peptidomimetic antibiotics disrupt the lipopolysaccharide transport bridge of drug-resistant Enterobacteriaceae” (Science Advances, 2023).
# Like-named read-outs stand apart in the source and are kept apart here.
# What was measured:
# [1] = system: panel of 121 Enterobacteriaceae including CRE, MDR, and XDR isolates; assay: organism not typed
# Protocol: (§1) MIC assays [Clinical and Laboratory Standards Institute (CLSI) methodology] and serial passage studies were performed as described by Luther et al. ([6]). […] Resistant mutants were isolated, and their MIC values were determined and sent to Microbes NG (Birmingham, United Kingdom) for whole-genome sequencing and bioinformatic analysis.
# [2] = system: Klebsiella pneumoniae NCTC 13443 LptA I36S mutant; assay: microbe, parasite or virus in culture; details: Klebsiella pneumoniae, NCTC13443, read-out: MIC Klebsiella pneumoniae NCTC 13443 LptA I36S (2x)
# Protocol: as §1
# [3] = system: Escherichia coli ATCC 25922 LptA E84D mutant; assay: microbe, parasite or virus in culture; details: Escherichia coli, ATCC25922, read-out: MIC Escherichia coli ATCC 25922 LptA E84D (1x)
# Protocol: as §1
# [4] = system: K. pneumoniae ATCC 43816 (parent / WT); assay: microbe, parasite or virus in culture; details: Klebsiella pneumoniae, ATCC43816, read-out: MIC Klebsiella pneumoniae ATCC 43816 WT
# Protocol: as §1
# [5] = system: Klebsiella pneumoniae ATCC 43816 LptA I36S mutant; assay: microbe, parasite or virus in culture; details: Klebsiella pneumoniae, ATCC43816, read-out: MIC Klebsiella pneumoniae ATCC 43816 LptA I36S (1x)
# Protocol: as §1
# [6] = system: K. pneumoniae NCTC 13443 (NDM-1) (parent / WT); assay: microbe, parasite or virus in culture; details: Klebsiella pneumoniae
# Protocol: as §1
# [7] = system: Klebsiella pneumoniae NCTC 13443 YejM mutant; assay: microbe, parasite or virus in culture; details: Klebsiella pneumoniae, NCTC13443, read-out: MIC Klebsiella pneumoniae NCTC 13443 YejM (1x)
# Protocol: as §1
# [8] = system: K. pneumoniae NCTC 13443 (NDM-1) LptA Q62L mutant; assay: microbe, parasite or virus in culture; details: Klebsiella pneumoniae
# Protocol: as §1
# [9] = system: Klebsiella pneumoniae ATCC 43816 LptA L116Q mutant; assay: microbe, parasite or virus in culture; details: Klebsiella pneumoniae, ATCC43816, read-out: MIC Klebsiella pneumoniae ATCC 43816 LptA L116Q (1x)
# Protocol: as §1
# [10] = system: Klebsiella pneumoniae ATCC 43816 LapB mutant; assay: microbe, parasite or virus in culture; details: Klebsiella pneumoniae, ATCC43816, read-out: MIC Klebsiella pneumoniae ATCC 43816 LapB (1x)
# Protocol: as §1
# [11] = system: Klebsiella pneumoniae ATCC 43816 LptA I36N mutant; assay: microbe, parasite or virus in culture; details: Klebsiella pneumoniae, ATCC43816, read-out: MIC Klebsiella pneumoniae ATCC 43816 LptA I36N (1x)
# Protocol: as §1
# [12] = system: Escherichia coli ATCC 25922 KdsD mutant; assay: microbe, parasite or virus in culture; details: Escherichia coli, ATCC25922, read-out: MIC Escherichia coli ATCC 25922 KdsD (2x)
# Protocol: as §1
# [13] = system: E. coli ATCC 25922 LptA Q62L mutant; assay: microbe, parasite or virus in culture; details: Escherichia coli
# Protocol: as §1
# [14] = system: Klebsiella pneumoniae ATCC 43816 PglJ, PhnJ, ThiH mutant; assay: microbe, parasite or virus in culture; details: Klebsiella pneumoniae, ATCC43816, read-out: MIC Klebsiella pneumoniae ATCC 43816 PglJ, PhnJ, ThiH (1x)
# Protocol: as §1
# [15] = system: E. coli ATCC 25922 (parent / WT); assay: microbe, parasite or virus in culture; details: Escherichia coli
# Protocol: as §1
# [16] = system: Klebsiella pneumoniae NCTC 13443 LpxC, LpxD mutant; assay: microbe, parasite or virus in culture; details: Klebsiella pneumoniae, NCTC13443, read-out: MIC Klebsiella pneumoniae NCTC 13443 LpxC, LpxD (1x)
# Protocol: as §1
# [17] = system: K. pneumoniae ATCC 43816 LptA Q62L mutant; assay: microbe, parasite or virus in culture; details: Klebsiella pneumoniae
# Protocol: as §1
# [18] = system: Enterobacteriaceae (CS, Col-S) (n=22); type: cell-based; details: CLSI microdilution; minimum and maximum MIC of the panel; carbapenem sensitive, colistin sensitive
# Protocol: as §1
# [19] = system: K. pneumoniae 968733 (CST-R); assay: MIC assay (CLSI); type: cell-based, Klebsiella pneumoniae; details: Klebsiella pneumoniae, read-out: MIC K. pneumoniae 968733 (CST-R) Parent
# Protocol: as §1
# [20] = system: E. coli ST131 (n=8); assay: MIC against isolate panel; type: cell-based, Escherichia coli; details: CLSI microdilution; minimum and maximum MIC of the panel
# Protocol: as §1
compound,measurement,setting,value
C[C@@H](O)[C@H]1C(=O)N2C(C(=O)O)=C(S[C@@H]3CN[C@H](C(=O)N(C)C)C3)[C@H](C)[C@H]12 [Meropenem],MIC50,[1]; read-out: MIC50 (n=121),> 8 µg/mL
same,MIC90,[1]; read-out: MIC90 (n=121),> 64 µg/mL
same,MIC,[2],> 64 µg/mL
same,MIC,[3],≤ 0.06 µg/mL
same,MIC,[4],0.13 µg/mL
same,MIC,[5],≤ 0.06 µg/mL
same,MIC,"[6]; NCTC13443, read-out: MIC K. pneumoniae NCTC 13443 (NDM-1) Parent",> 8 µg/mL
same,MIC,"[6]; NCTC13443, read-out: MIC Klebsiella pneumoniae NCTC 13443 WT",> 64 µg/mL
same,MIC,[7],> 64 µg/mL
same,MIC,"[8]; NCTC13443, read-out: MIC K. pneumoniae NCTC 13443 (NDM-1) Q62L mutant",> 8 µg/mL
same,MIC,"[8]; NCTC13443, read-out: MIC Klebsiella pneumoniae NCTC 13443 LptA Q62L (5x)",> 64 µg/mL
same,MIC,[9],≤ 0.06 µg/mL
same,MIC,[10],0.13 µg/mL
same,MIC,[11],≤ 0.06 µg/mL
same,MIC,[12],0.13 µg/mL
same,MIC,"[13]; ATCC25922, read-out: MIC E. coli ATCC 25922 Q62L mutant",0.063 µg/mL
same,MIC,"[13]; ATCC25922, read-out: MIC Escherichia coli ATCC 25922 LptA Q62L (7x)",≤ 0.06 µg/mL
same,MIC,[14],0.13 µg/mL
same,MIC,"[15]; ATCC25922, read-out: MIC E. coli ATCC 25922 Parent",0.063 µg/mL
same,MIC,"[15]; ATCC25922, read-out: MIC Escherichia coli ATCC 25922 WT",≤ 0.06 µg/mL
same,MIC,[16],> 64 µg/mL
same,MIC,"[17]; ATCC43816, read-out: MIC K. pneumoniae ATCC 43816 Q62L mutant",0.063 µg/mL
same,MIC,"[17]; ATCC43816, read-out: MIC Klebsiella pneumoniae ATCC 43816 LptA Q62L (4x)",≤ 0.06 µg/mL
same,"MIC range Enterobacteriaceae (CS, Col-S) (n=22)",[18],≤0.06 to 0.5 µg/mL
same,MIC,[19],0.031 µg/mL
same,MIC range E. coli ST131 (n=8),[20],<=0.06-8 µg/mL
